Source: PubChem BioAssay AID179 (DTP/NCI, 2004)
“And” between values parts separate entries of the source, which are not always exact repeats. Equal values may be shown once. The source made the active and inactive calls.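 The calls were made as follows: active = compounds giving half or more protection of infected cells from virus-caused growth loss, again on retest; inactive = the rest.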

System: CEM cells HIV-1 protection, formazan growth assay
Test: NCI AIDS Antiviral Assay
Conditions: for IC50: measured here: growth of uninfected CEM cells
Procedure, shortened: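 CEM (human) cells, HIV-1 infected vs uninfected, 5-point dosing, formazan growth read-out. Retest threshold 50% protection.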

Compound	EC50	IC50	outcome
Cc1cc(C(=C2C=CC(=Nc3ccc(S(=O)(=O)O)cc3)C=C2)c2ccc(Nc3ccc(S(=O)(=O)O)cc3)cc2)cc(S(=O)(=O)O)c1N	30.2 µM	49 µM	–
COc1cc2c3c(c1OC)-c1[nH]c4ccccc4c1C1CCCN(CC2)C31 (configuration not stated)	> 138 µM	15.1 µM	–
O/N=C/c1ncccc1C1OCCO1	> 257 µM	141 µM	–
COC(=O)/C=C1\C(CO[Si](C)(C)C(C)(C)C)OC(n2ccc(=O)[nH]c2=O)C1O (configuration not stated)	> 200 µM	6.17 µM	–
S=CN1CCN(C=S)CC1	–	–	inactive
CC(NC(=O)C(Cc1ccc(OC(=O)c2ccccc2)cc1)NC(=O)OC(C)(C)C)C(=O)NCC(=O)NC(Cc1ccccc1)NC(=O)OCc1ccccc1 (configuration not stated)	> 200 µM	110 µM	–
Cn1c(=O)c2c(c3cc(O)ccc31)OC(C(C)(C)O)C2 (configuration not stated)	> 617 µM	112 µM	–
COC(=O)CCCC1(CCCC(=O)OC)CCCCCCCCC(CCCC(=O)OC)(CCCC(=O)OC)C(=O)C1=O	> 200 µM	35.5 µM	–
O=C(COc1ccccc1Cl)N1N=C(c2ccc(Cl)cc2)CC1(O)c1ccccc1 (configuration not stated)	> 4.57 µM	> 4.57 µM	–
CC(C)(Oc1ccc2c(=O)cc(-c3ccc(Cl)cc3)oc2c1)C(=O)Nc1c(Cl)cccc1Cl	> 10.2 µM	> 10.2 µM	–
CCCCCCCCN(/N=C/c1c2c(O)c3c(O)c(C)c4c(c3c1O)C(=O)C(C)(O/C=C\C(OC)C(C)C(OC(C)=O)C(C)C(O)C(C)C(O)C(C)/C=C/C=C(C)C(=O)N2)O4)C12CC3CC(CC(C3)C1)C2 (configuration not stated)	> 200 µM	8.91 µM	–
CCCC(O)(CCC)C1=NCCN1	> 200 µM	> 200 µM	–
NC(=S)N/N=C(/CCN1CCCC1)CC(C1=C(O)C2=CCCCC2OC1=O)c1ccccc1 (configuration not stated)	> 135 µM	> 135 µM	–
Cc1c(C)n2c(=O)n(-c3ccccc3)c(=O)n2c1=O	> 977 µM	617 µM	–
O=C(c1ccccc1)c1c(O)c2ccccc2oc1=O	–	–	inactive
C(=C\c1ccnc2ccccc12)/c1cccnc1	> 155 µM	42.7 µM	–
CCOC(=O)NNP(=O)(NNC(=O)OCC)c1ccccc1	> 110 µM	> 110 µM	–
O=C(CC1OC(O)C(Cl)=C1Cl)c1cccnc1 (configuration not stated)	24.5 µM	501 µM	–
COc1ccc2[nH]c(C(=O)N3CC(CCl)c4c3cc(N)c3ccccc43)cc2c1 (configuration not stated)	> 0.2 µM	0.00158 µM	–
O=C1c2ccccc2C(=O)c2c1ccc1c2N=C(c2ccc(F)cc2)CC(c2ccc(Cl)c(Cl)c2)N1 (configuration not stated)	> 14.1 µM	> 14.1 µM	–
COc1ccc(/C=C2\N=C(SC)N(CN3CCOCC3)C2=O)cc1	> 200 µM	29.5 µM	–
Cc1cc(S(=O)(=O)n2ccnc2Oc2ccccc2)c(SSc2cc(Cl)c(C)cc2S(=O)(=O)n2ccnc2Oc2ccccc2)cc1Cl	129 µM	> 200 µM	–

Compound	EC50	IC50	outcome
Cc1nc(-n2nc(-c3ccccc3)cc2-c2ccccc2)sc1C(=O)/C=C/c1ccc(Cl)cc1	> 14.8 µM	> 14.8 µM	–
Cc1ccc(-c2ccc(Nc3c4ccccc4nc4ccccc34)cc2)cn1	> 200 µM	2.69 µM	–
O=C(CCCn1ccnc1[N+](=O)[O-])NCCn1cnc([N+](=O)[O-])n1	> 200 µM	> 200 µM	–
CC1=C(C(=O)Nc2ccc(Cl)c(Cl)c2)C(c2ccco2)C(C(=O)Nc2ccc(Cl)c(Cl)c2)=C(C)N1	> 33.9 µM	13.8 µM	–
O=C1C(O)=C(O)C(=O)C(O)=C1O	> 200 µM	> 200 µM	–
O=C(Cc1c(C(=O)Nc2ccccc2)sc(C(=O)Nc2ccccc2)c1CC(=O)Nc1ccccc1)Nc1ccccc1	–	–	inactive
COc1cc(OC)c(-n2[nH]c(=O)n(C)c2=O)c(OC)c1	> 200 µM	> 200 µM	–
Cc1cc2[nH]c3c(C#N)c4c(c(=O)n3c2cc1C)CCCC4	> 200 µM	> 200 µM	–
COc1ccc2c(c1)CC1COc3cc(OC)ccc3C1O2 (configuration not stated)	> 200 µM	> 200 µM	–
Cc1c(-c2ccccc2)cc(O)c2nc3ccccc3n12	> 200 µM	19.5 µM	–
COc1c(C(=O)c2cc(Cl)cc(S(=O)(=O)N(C)C=O)c2OC)cc(Cl)cc1S(=O)(=O)N(C)C=O	> 46.8 µM	> 46.8 µM	–
Nc1ccc(S(=O)(=O)Nc2cnc3c(Cl)cccc3n2)cc1	> 537 µM	6.46 µM	–
NC(=S)N/N=C(\CCC(=O)Nc1ccccc1[N+](=O)[O-])CC(=O)c1ccco1	> 234 µM	> 234 µM	–
CCOC(=O)C1=C(C)C2C3C(=O)NC(=O)C3C1(C)C1C(=O)NC(=O)C21 (configuration not stated)	> 724 µM	> 724 µM	–
CCOc1ccc(NC(=O)CCC(=O)NN)cc1	> 724 µM	603 µM	–
CCO/C=C/c1cc2c(c3c1-c1c(cc(OC)c(OC)c1OC)C3=O)OCO2	> 6.46 µM	> 6.46 µM	–
C#CC(C)(C)OC(=O)C(=[N+]=[N-])C(C)=O	> 200 µM	> 200 µM	–
COc1cccc(/C=N/[N-]C(N)=O)c1[O-].[Cu+2].[OH3+].c1ccc(-c2ccccn2)nc1	–	–	inactive
COc1ccc(C2CC(c3ccc4ccccc4c3O)=NN2)cc1OC (configuration not stated)	> 200 µM	42.7 µM	–
Cn1cc(NC(=O)Nc2cc(C(=O)Nc3cc(C(=O)Nc4ccc5c(S(=O)(=O)O)cccc5c4S(=O)(=O)O)n(C)c3)n(C)c2)cc1C(=O)Nc1cc(C(=O)Nc2ccc3c(S(=O)(=O)O)cccc3c2S(=O)(=O)O)n(C)c1	22.9 µM	148 µM	–
COc1c(C2=NC(C(C)C)CO2)ccc2ccccc12 (configuration not stated)	> 186 µM	20.9 µM	–
CC(=O)c1sc(/N=C\c2c(O)c3ccccc3oc2=O)nc1C	> 200 µM	38.9 µM	–

Compound	EC50	IC50	outcome
CC(=O)OC1COC(n2c3ccccc3c3ccc4c5ccccc5[nH]c4c32)C(OC(C)=O)C1OC(C)=O (configuration not stated)	> 117 µM	115 µM	–
CC1CCOC(Sc2ccccc2)C1 (configuration not stated)	–	–	inactive
CC[N+](C)(CC)CCCC(C)N1C(=O)C2CCCCC2C1=O (configuration not stated)	> 200 µM	> 200 µM	–
O=P1(Cc2ccccc2)C(c2ccccc2)=C(O)C2CCCC21 (configuration not stated)	> 112 µM	> 112 µM	–
CC(=O)N1CC(O)(c2ccccc2)CSc2ccccc21 (configuration not stated)	> 107 µM	> 107 µM	–
CN(C)c1nc(=Nc2ccc3ccccc3c2)ss1	–	–	inactive
COc1cc2c3c(c1)nnn3C(=O)C(C)S2 (configuration not stated)	–	–	inactive
O=C1c2c(O)cc(O)c(OC3OC(CO)C(O)C(O)C3O)c2OC(c2ccc(O)c(O)c2)C1O (configuration not stated)	> 513 µM	57.5 µM	–
O=C1CCC(=O)N2c3ccccc3-c3ccccc3N12	> 191 µM	> 191 µM	–
COc1cc2c(cc1OC)C1CCc3ccccc3CN1CC2 (configuration not stated)	> 200 µM	170 µM	–
c1ccc2c(-c3cccc4ccccc34)cccc2c1	> 200 µM	> 200 µM	–
CCc1n[nH]c(CC)c1CCCCCCOc1ccc(OC)cc1Cl	> 200 µM	9.77 µM and 10 µM	–
COc1ccc(/C=C/C(=O)O)cc1OC	> 1200 µM	> 1200 µM	–
C[C@H]1S[C@@H](c2ccc(Cl)cc2Cl)N(NC(=O)c2ccncc2)C1=O	> 200 µM	74.1 µM	–
CCCCCC=C(c1cc(Cl)c(O)c(C(=O)O)c1)c1cc(Cl)c(O)c(C(=O)O)c1	> 95.5 µM	> 95.5 µM	–
O=C1CC(c2ccccc2)NCN1 (configuration not stated)	–	–	inactive
CC(O)C1(CNc2cc(Cl)nc(N)n2)CC(CCc2ccccc2)C1 (configuration not stated)	> 20 µM	7.76 µM	–
CC1=C(C)CC2(SC1)C(=O)c1ccccc1C2=O	–	–	inactive
COc1ccc(/C=C/C(=O)/C=C/c2ccc(OC)cc2)cc1	> 200 µM	72.4 µM	–
C1=C(N2CCOCC2)/C(=C2\SC(=Nc3ccccc3)C(=Nc3ccccc3)N2c2ccccc2)CC1	> 200 µM	138 µM	–
C#CCNC(Cc1cnc[nH]1)C(=O)O (configuration not stated)	> 200 µM	> 200 µM	–
O=S(Cc1cnc2ccccc2c1)c1nc2ccccc2nc1-c1cccs1 (configuration not stated)	> 6.76 µM	> 6.76 µM	–

Compound	EC50	IC50	outcome
COc1ccc(Nc2nnc(CCCCCCCCc3nnc(Nc4ccc(OC)cc4)o3)o2)cc1	> 200 µM	> 200 µM	–
O=C(Oc1ccccc1C(=O)O)c1ccccc1O	> 200 µM	> 200 µM	–
O=C1NC2(CCCCC2)OC12CCCCC2	> 6.46 µM	> 6.46 µM	–
O=C(NC(=O)c1c(Cl)nc2sccn12)Nc1ccc(Cl)cc1	> 10 µM	> 10 µM	–
CC1=C(C#N)C2(C(=O)N(C)c3ccccc32)C(C#N)=C(C)N1	> 324 µM	27.5 µM	–
CC1=NC(=Cc2cccc(Cl)c2)C(=O)N1n1c(-c2ccccc2)nc2ccccc2c1=O	> 200 µM	36.3 µM	–
O=c1ccnc(Nc2ccc[nH]c2=S)[nH]1	> 589 µM	282 µM	–
CCCC[PH+](CCCC)CCCC.[C-]#[O+].[C-]#[O+].[C-]#[O+].[C-]#[O+].[Fe]	> 200 µM	> 200 µM	–
O=C1CCCN1CO	> 200 µM	> 200 µM	–
COc1ccc(OC)c2c3c(ccc12)C(c1ccccc1)OC3=O (configuration not stated)	–	–	inactive
O=C(O)CNC(=O)Cn1[se]c2ccccc2c1=O	18.2 µM	110 µM	–
CSC1(CC(=O)N2CCCCC2)C(=O)Nc2ccccc21 (configuration not stated)	> 200 µM	> 200 µM	–
CC(NC(=O)C(N)CC(=O)O)NC(=O)N(C)C(C)(C)C (configuration not stated)	> 200 µM	> 200 µM	–
O=C(O)CCNS(=O)(=O)c1ccc(NC(=O)c2ccccc2)cc1	–	–	inactive
Cc1cc(N(CCC#N)CCC#N)ccc1/C(N=Nc1ccc([N+](=O)[O-])cc1)=N\NC(=O)c1cc(Cl)ccc1C(=O)c1ccccc1	> 200 µM	11.2 µM	–
CC1C(c2cc(C(C)(C)C)c(O)c(C(C)(C)C)c2)c2cc3c(cc2OC1N1CCOCC1)OCO3 (configuration not stated)	> 200 µM	> 200 µM	–
Cc1ccc(S(=O)(=O)C(CC(=O)N2CCCC2)C(=O)c2ccccc2)cc1 (configuration not stated)	> 93.3 µM	15.5 µM	–
Cc1ccc(C2=C(C#N)C(=O)N3CCN=C3S2)cc1	> 200 µM	> 100 µM	–
Cc1ccc2c(c1)C(=O)c1cc(C)cc(C(=O)O)c1-2	> 200 µM	> 200 µM	–
COc1ccc(CCNCc2cccc(OC)c2OC)cc1OC	–	–	inactive
Cn1c2ccccc2n2c3ncccc3c(=NCCCC(=O)O)c(C#N)c12	> 200 µM	> 200 µM	–
